According to paper PMC6136660 (Steroids, 2018):

Key:
[1] = test system: white blood cells and subsets (lymphocytes, neutrophils, eosinophils); assay: Differential white blood cell counts (immune suppression), MAD; assay type: in vivo, human; conditions: for Eosinophils: mean; for Lymphocytes / Neutrophil cell counts / White blood cells counts: mean±SEM, in 10^9/L (unit assumed)
Description: A single dose of pharmacological glucocorticoids results in rapid changes in peripheral blood white cell counts, with increased neutrophils, and decreased lymphocytes. Increases of neutrophils are from release from peripheral tissues, whereas loss of lymphocytes is due to induction of apoptosis. Differential white blood cell counts were studied in all Phase 1 MAD subjects. […]
placebo. White blood cells and subsets (lymphocytes, neutrophils, eosinophils) were measured at screening, day -1, pre-dose on days 1-14, day 17, and at follow-up (recovery). Day 1 (pre-dose), Day 2 (24 hr after first dose), Day 14 and follow-up (recovery) time points are graphed […]

[2] = test system: growth and bone; set-up: method as in PMID 24014378; conditions: 30 mg/kg/day, pre-clinical models; cited from earlier work
[3] = MAD 1.0 mg/kg, Day 1 predose, baseline
[4] = MAD 1.0 mg/kg, Day 17 (3 days after last dose)
[5] = MAD 1.0 mg/kg, Day 21 follow-up
[6] = MAD 1.0 mg/kg, Day -1, baseline
[7] = MAD 1.0 mg/kg, Screening, baseline
[8] = MAD 3.0 mg/kg, Day 1 predose, baseline
[9] = MAD 3.0 mg/kg, Day 17 (3 days after last dose)
[10] = MAD 3.0 mg/kg, Day 21 follow-up
[11] = MAD 3.0 mg/kg, Day -1, baseline
[12] = MAD 3.0 mg/kg, Screening, baseline
[13] = MAD 9.0 mg/kg, Day 1 predose, baseline
[14] = MAD 9.0 mg/kg, Day 17 (3 days after last dose)
[15] = MAD 9.0 mg/kg, Day 21 follow-up
[16] = MAD 9.0 mg/kg, Day -1, baseline
[17] = MAD 9.0 mg/kg, Screening, baseline
[18] = MAD 20.0 mg/kg, Day 1 predose, baseline
[19] = MAD 20.0 mg/kg, Day 17 (3 days after last dose)
[20] = MAD 20.0 mg/kg, Day 21 follow-up
[21] = MAD 20.0 mg/kg, Day -1, baseline
[22] = MAD 20.0 mg/kg, Screening, baseline

C[C@@H]1C[C@H]2[C@@H]3CCC4=CC(=O)C=C[C@]4(C)C3=CC[C@]2(C)[C@@]1(O)C(=O)CO [vamorolone]
Eosinophils [1, 3]: 0.17 10^9/L
Lymphocytes [1, 3]: 1.9 ± 0.4
Neutrophil cell counts [1, 3]: 2.8 ± 1.0
White blood cells counts [1, 3]: 5.2 ± 1.0
Eosinophils ([1]; MAD 1.0 mg/kg, Day 2 predose): 0.17 10^9/L
Lymphocytes ([1]; MAD 1.0 mg/kg, Day 2 predose): 1.8 ± 0.3
Neutrophil cell counts ([1]; MAD 1.0 mg/kg, Day 2 predose): 3.0 ± 0.9
White blood cells counts ([1]; MAD 1.0 mg/kg, Day 2 predose): 5.3 ± 0.9
Eosinophils ([1]; MAD 1.0 mg/kg, Day 3 predose): 0.17 10^9/L
Lymphocytes ([1]; MAD 1.0 mg/kg, Day 3 predose): 2.1 ± 0.2
Neutrophil cell counts ([1]; MAD 1.0 mg/kg, Day 3 predose): 2.8 ± 0.8
White blood cells counts ([1]; MAD 1.0 mg/kg, Day 3 predose): 5.4 ± 0.8
Eosinophils ([1]; MAD 1.0 mg/kg, Day 7 predose): 0.2 10^9/L
Lymphocytes ([1]; MAD 1.0 mg/kg, Day 7 predose): 2.1 ± 0.3
Neutrophil cell counts ([1]; MAD 1.0 mg/kg, Day 7 predose): 3.1 ± 0.9
White blood cells counts ([1]; MAD 1.0 mg/kg, Day 7 predose): 5.9 ± 0.7
Eosinophils ([1]; MAD 1.0 mg/kg, Day 12 predose): 0.2 10^9/L
Lymphocytes ([1]; MAD 1.0 mg/kg, Day 12 predose): 2.3 ± 0.3
Neutrophil cell counts ([1]; MAD 1.0 mg/kg, Day 12 predose): 3.2 ± 1.0
White blood cells counts ([1]; MAD 1.0 mg/kg, Day 12 predose): 6.1 ± 0.9
Eosinophils ([1]; MAD 1.0 mg/kg, Day 14 predose): 0.18 10^9/L
Lymphocytes ([1]; MAD 1.0 mg/kg, Day 14 predose): 2.3 ± 0.2
Neutrophil cell counts ([1]; MAD 1.0 mg/kg, Day 14 predose): 3.0 ± 1.0
White blood cells counts ([1]; MAD 1.0 mg/kg, Day 14 predose): 5.9 ± 0.9
Eosinophils [1, 4]: 0.17 10^9/L
Lymphocytes [1, 4]: 2.1 ± 0.4
Neutrophil cell counts [1, 4]: 3.0 ± 0.8
White blood cells counts [1, 4]: 5.7 ± 0.6
Eosinophils [1, 5]: 0.15 10^9/L
Lymphocytes [1, 5]: 2.0 ± 0.2
Neutrophil cell counts [1, 5]: 3.0 ± 0.6
White blood cells counts [1, 5]: 5.5 ± 0.7
Eosinophils [1, 6]: 0.18 10^9/L
Lymphocytes [1, 6]: 2.1 ± 0.5
Neutrophil cell counts [1, 6]: 2.8 ± 0.9
White blood cells counts [1, 6]: 5.5 ± 0.8
Eosinophils [1, 7]: 0.13 10^9/L
Lymphocytes [1, 7]: 1.8 ± 0.5
Neutrophil cell counts [1, 7]: 3.6 ± 2.0
White blood cells counts [1, 7]: 5.9 ± 2.2
Eosinophils [1, 8]: 0.23 10^9/L
Lymphocytes [1, 8]: 1.8 ± 0.6
Neutrophil cell counts [1, 8]: 3.4 ± 1.3
White blood cells counts [1, 8]: 5.8 ± 2.0
Eosinophils ([1]; MAD 3.0 mg/kg, Day 2 predose): 0.23 10^9/L
Lymphocytes ([1]; MAD 3.0 mg/kg, Day 2 predose): 2.0 ± 0.4
Neutrophil cell counts ([1]; MAD 3.0 mg/kg, Day 2 predose): 3.4 ± 1.2
White blood cells counts ([1]; MAD 3.0 mg/kg, Day 2 predose): 5.9 ± 1.5
Eosinophils ([1]; MAD 3.0 mg/kg, Day 3 predose): 0.2 10^9/L
Lymphocytes ([1]; MAD 3.0 mg/kg, Day 3 predose): 2.1 ± 0.7
Neutrophil cell counts ([1]; MAD 3.0 mg/kg, Day 3 predose): 3.4 ± 1.4
White blood cells counts ([1]; MAD 3.0 mg/kg, Day 3 predose): 6.1 ± 2.2
Eosinophils ([1]; MAD 3.0 mg/kg, Day 7 predose): 0.18 10^9/L
Lymphocytes ([1]; MAD 3.0 mg/kg, Day 7 predose): 2.4 ± 0.8
Neutrophil cell counts ([1]; MAD 3.0 mg/kg, Day 7 predose): 3.3 ± 0.9
White blood cells counts ([1]; MAD 3.0 mg/kg, Day 7 predose): 6.3 ± 2.0
Eosinophils ([1]; MAD 3.0 mg/kg, Day 12 predose): 0.18 10^9/L
Lymphocytes ([1]; MAD 3.0 mg/kg, Day 12 predose): 2.1 ± 0.7
Neutrophil cell counts ([1]; MAD 3.0 mg/kg, Day 12 predose): 3.2 ± 1.1
White blood cells counts ([1]; MAD 3.0 mg/kg, Day 12 predose): 6.0 ± 2.0
Eosinophils ([1]; MAD 3.0 mg/kg, Day 14 predose): 0.2 10^9/L
Lymphocytes ([1]; MAD 3.0 mg/kg, Day 14 predose): 2.2 ± 0.6
Neutrophil cell counts ([1]; MAD 3.0 mg/kg, Day 14 predose): 3.0 ± 1.1
White blood cells counts ([1]; MAD 3.0 mg/kg, Day 14 predose): 5.8 ± 1.8
Eosinophils [1, 9]: 0.17 10^9/L
Lymphocytes [1, 9]: 2.0 ± 0.5
Neutrophil cell counts [1, 9]: 4.0 ± 1.1
White blood cells counts [1, 9]: 6.6 ± 1.6
Eosinophils [1, 10]: 0.18 10^9/L
Lymphocytes [1, 10]: 1.8 ± 0.6
Neutrophil cell counts [1, 10]: 3.9 ± 1.4
White blood cells counts [1, 10]: 6.3 ± 1.6
Eosinophils [1, 11]: 0.2 10^9/L
Lymphocytes [1, 11]: 1.9 ± 0.6
Neutrophil cell counts [1, 11]: 3.5 ± 1.4
White blood cells counts [1, 11]: 6.1 ± 1.9
Eosinophils [1, 12]: 0.18 10^9/L
Lymphocytes [1, 12]: 2.0 ± 1.0
Neutrophil cell counts [1, 12]: 3.5 ± 1.8
White blood cells counts [1, 12]: 6.2 ± 2.9
Eosinophils [1, 13]: 0.1 10^9/L
Lymphocytes [1, 13]: 1.8 ± 0.4
Neutrophil cell counts [1, 13]: 2.9 ± 0.9
White blood cells counts [1, 13]: 5.2 ± 1.1
Eosinophils ([1]; MAD 9.0 mg/kg, Day 2 predose): 0.13 10^9/L
Lymphocytes ([1]; MAD 9.0 mg/kg, Day 2 predose): 2.5 ± 0.7
Neutrophil cell counts ([1]; MAD 9.0 mg/kg, Day 2 predose): 3.7 ± 1.1
White blood cells counts ([1]; MAD 9.0 mg/kg, Day 2 predose): 6.7 ± 1.2
Eosinophils ([1]; MAD 9.0 mg/kg, Day 3 predose): 0.1 10^9/L
Lymphocytes ([1]; MAD 9.0 mg/kg, Day 3 predose): 2.7 ± 0.7
Neutrophil cell counts ([1]; MAD 9.0 mg/kg, Day 3 predose): 3.6 ± 0.7
White blood cells counts ([1]; MAD 9.0 mg/kg, Day 3 predose): 6.8 ± 1.0
Eosinophils ([1]; MAD 9.0 mg/kg, Day 7 predose): 0.1 10^9/L
Lymphocytes ([1]; MAD 9.0 mg/kg, Day 7 predose): 2.6 ± 0.6
Neutrophil cell counts ([1]; MAD 9.0 mg/kg, Day 7 predose): 3.4 ± 1.0
White blood cells counts ([1]; MAD 9.0 mg/kg, Day 7 predose): 6.6 ± 1.3
Eosinophils ([1]; MAD 9.0 mg/kg, Day 12 predose): 0.12 10^9/L
Lymphocytes ([1]; MAD 9.0 mg/kg, Day 12 predose): 2.8 ± 0.6
Neutrophil cell counts ([1]; MAD 9.0 mg/kg, Day 12 predose): 3.5 ± 0.9
White blood cells counts ([1]; MAD 9.0 mg/kg, Day 12 predose): 6.8 ± 0.9
Eosinophils ([1]; MAD 9.0 mg/kg, Day 14 predose): 0.13 10^9/L
Lymphocytes ([1]; MAD 9.0 mg/kg, Day 14 predose): 2.6 ± 0.6
Neutrophil cell counts ([1]; MAD 9.0 mg/kg, Day 14 predose): 3.6 ± 1.0
White blood cells counts ([1]; MAD 9.0 mg/kg, Day 14 predose): 6.8 ± 1.3
Eosinophils [1, 14]: 0.08 10^9/L
Lymphocytes [1, 14]: 1.9 ± 0.5
Neutrophil cell counts [1, 14]: 3.1 ± 0.7
White blood cells counts [1, 14]: 5.5 ± 0.7
Eosinophils [1, 15]: 0.12 10^9/L
Lymphocytes [1, 15]: 1.8 ± 0.7
Neutrophil cell counts [1, 15]: 2.9 ± 1.0
White blood cells counts [1, 15]: 5.2 ± 1.1
Eosinophils [1, 16]: 0.12 10^9/L
Lymphocytes [1, 16]: 2.1 ± 0.7
Neutrophil cell counts [1, 16]: 2.9 ± 0.6
White blood cells counts [1, 16]: 5.5 ± 1.1
Eosinophils [1, 17]: 0.1 10^9/L
Lymphocytes [1, 17]: 1.7 ± 0.5
Neutrophil cell counts [1, 17]: 3.0 ± 1.0
White blood cells counts [1, 17]: 5.2 ± 1.3
Eosinophils [1, 18]: 0.28 10^9/L
Lymphocytes [1, 18]: 2.2 ± 0.6
Neutrophil cell counts [1, 18]: 3.4 ± 1.1
White blood cells counts [1, 18]: 6.3 ± 1.4
Eosinophils ([1]; MAD 20.0 mg/kg, Day 2 predose): 0.17 10^9/L
Lymphocytes ([1]; MAD 20.0 mg/kg, Day 2 predose): 2.9 ± 0.8
Neutrophil cell counts ([1]; MAD 20.0 mg/kg, Day 2 predose): 4.5 ± 1.2
White blood cells counts ([1]; MAD 20.0 mg/kg, Day 2 predose): 8.0 ± 1.3
Eosinophils ([1]; MAD 20.0 mg/kg, Day 3 predose): 0.15 10^9/L
Lymphocytes ([1]; MAD 20.0 mg/kg, Day 3 predose): 2.9 ± 0.7
Neutrophil cell counts ([1]; MAD 20.0 mg/kg, Day 3 predose): 4.3 ± 1.2
White blood cells counts ([1]; MAD 20.0 mg/kg, Day 3 predose): 7.9 ± 0.7
Eosinophils ([1]; MAD 20.0 mg/kg, Day 7 predose): 0.15 10^9/L
Lymphocytes ([1]; MAD 20.0 mg/kg, Day 7 predose): 3.2 ± 0.9
Neutrophil cell counts ([1]; MAD 20.0 mg/kg, Day 7 predose): 4.4 ± 0.7
White blood cells counts ([1]; MAD 20.0 mg/kg, Day 7 predose): 8.2 ± 1.0
Eosinophils ([1]; MAD 20.0 mg/kg, Day 12 predose): 0.12 10^9/L
Lymphocytes ([1]; MAD 20.0 mg/kg, Day 12 predose): 3.2 ± 0.4
Neutrophil cell counts ([1]; MAD 20.0 mg/kg, Day 12 predose): 4.4 ± 0.4
White blood cells counts ([1]; MAD 20.0 mg/kg, Day 12 predose): 8.3 ± 0.5
Eosinophils ([1]; MAD 20.0 mg/kg, Day 14 predose): 0.16 10^9/L
Lymphocytes ([1]; MAD 20.0 mg/kg, Day 14 predose): 3.1 ± 0.4
Neutrophil cell counts ([1]; MAD 20.0 mg/kg, Day 14 predose): 4.6 ± 0.4
White blood cells counts ([1]; MAD 20.0 mg/kg, Day 14 predose): 8.5 ± 0.4
Eosinophils [1, 19]: 0.16 10^9/L
Lymphocytes [1, 19]: 2.2 ± 0.3
Neutrophil cell counts [1, 19]: 4.0 ± 0.3
White blood cells counts [1, 19]: 6.8 ± 0.2
Eosinophils [1, 20]: 0.26 10^9/L
Lymphocytes [1, 20]: 2.2 ± 0.3
Neutrophil cell counts [1, 20]: 4.0 ± 0.3
White blood cells counts [1, 20]: 6.8 ± 0.4
Eosinophils [1, 21]: 0.32 10^9/L
Lymphocytes [1, 21]: 2.6 ± 0.5
Neutrophil cell counts [1, 21]: 3.9 ± 1.1
White blood cells counts [1, 21]: 7.3 ± 1.1
Eosinophils [1, 22]: 0.25 10^9/L
Lymphocytes [1, 22]: 2.0 ± 0.5
Neutrophil cell counts [1, 22]: 3.5 ± 1.2
White blood cells counts [1, 22]: 6.1 ± 1.1
white blood cell counts ([1]; any MAD dose group): No significant changes
severe stunting of growth and osteopenia [2]: did not
